Tests used:
[1] = system: Human pancreatic cancer cells; assay: Immunogenic cell death (ICD) hallmarks; type: cell-based; conditions: ABTL0812 0 to 150 μM; 24 hours
Procedure: Methods: Human pancreatic cancer cells were treated with increasing concentrations of ABTL0812 (ranging from 0 to 150 μM) for 24 hours, and ICD hallmarks extracellular Hmgb1 and ATP, surface Calreticulin, and caspases 3 and 8 activation, were evaluated by ELISA (Hmgb1 and ATP), flow cytometry (Calreticulin) and immunoblotting (Caspases 3 and 8). For extracellular Hmgb1 and ATP, culture media from ABTL0812 treated cells were collected and incubated with specific antibodies for further detection using colorimetric assay. For surface Calreticulin, cancer cells were collected and incubated with specific antibody for further detection using flow cytometry. For Caspase 3 and 8 activation, cancer cells were collected, protein lysate obtained, incubated with specific antibodies for further detection using immunoblotting and finally quantified using densitometry.

SK-N-BE(2) cells = assay: Cell viability (crystal violet), ABTL0812 with temozolomide; type: cell-based; conditions: ABTL0812 30 μM + temozolomide 500, 1000, 1500 μM; 48 hours; 0.5% FBS
Procedure: (§1) Methods: LA1-5S and SK-N-BE(2) cells were incubated with increasing concentrations of temozolomide (500 μM, 1000 μM and 1500 μM), and subIC50 fixed concentrations of ABTL0812. (30 μM for SK-N-BE(2) and 40 μM for LA1-5S). Cells were treated for 48 hours in IMDM with 0.5% FBS. Cell viability was evaluated by crystal violet assay. Different doses were assessed in six replicates and the results shown are the average of two independent experiments. Statistical analyses were performed according to the T-Test principle with GraphPad Prism® 5.0 software.

LA1-5S cells [2] = assay: as above; type: cell-based; conditions: ABTL0812 40 μM + temozolomide 500, 1000, 1500 μM; 48 hours; 0.5% FBS
Procedure: as §1

[3] = system: human immortalized THP-1 and human primary macrophage cells; assay: M1/M2 polarization of immortalized and primary macrophages, RT-qPCR; type: cell-based
Procedure: Methods: THP-1 monocytes growing in suspension were differentiated to macrophages by incubation with PMA for 24 hours, inducing their attachment to the plates. Monocytes were differentiated to macrophages incubating with M-CSF1 at 20 ng/mL for 7 days. In parallel, whole blood was collected from healthy donors, and circulating monocytes were purified using immunomagnetic separation. Monocytes were selected using anti-CD14 antibodies bound to magnetic beads, which were retained in the magnetic column and further eluted for culturing in vitro. After obtaining activated macrophages (immortalized and primary), these were polarized to M1 by incubation with LPS+IFNγ for 6 hours in the presence of ABTL0812 at 100 μM. In parallel, differentiated macrophages were polarized to M2 by incubation with IL-4 and IL-13 for 24 hours in the presence of ABTL0812 (100 μM). Afterwards, polarized macrophages were lysed, total RNA extracted, retrotranscribed to cDNA and mRNA levels of IL1β, TNFα (M1 markers) and IL-10 (M2 marker) were evaluated by RT-qPCR using specific probes.

PD1 = PD1 expression in primary T cells by flow cytometry; type: cell-based, human; conditions: 6 hours
Procedure: Methods: Human PBMCs were purified from peripheral blood of healthy donors using Ficoll and cultured in vitro. Human T cells were activated by incubation with IL-2 and CD3 and CD28 antibodies for 10 days and then treated with ABTL0812 for 6 hours. Finally, levels of PD1 expressed in the membrane of T cells was analyzed by flow cytometry using specific antibodies. Results are indicated as % of positive cells and show the average of three independent experiments (t-test **p<0.01 and ***p<0.001).

H157 cells = assay: PDL1 protein in xenograft tumors by western blot; type: in vivo, nude mice; conditions: ABTL0812 oral 120 mg/kg/day for three weeks
Procedure: (§2) Methods: Mice were injected with 4×10^6 H157 cells or 5×10^6 MiaPAca2 cells in one flank to induce tumor formation. […] After treatment, animals were sacrificed, tumor extracted and protein levels of PDL1 in cancer cells analyzed by western blot.

MiaPaca2 cells = assay: PDL1 protein in xenograft tumors by western blot; type: in vivo, nude mice; conditions: ABTL0812 oral 120 mg/kg/day for three weeks
Procedure: as §2

Ishikawa cells = type: in vivo; conditions: ABTL0812 oral 120 mg/kg/day; Doxorubicin 5 mg/kg i.p. once a week
Procedure: Methods: Mice were injected with 4×10^6 Ishikawa cells in one flank to induce tumor formation. […] ABTL0812 was administered by the oral route at 120 mg/kg/day. Doxorubicin 5 mg/kg was administered intra-peritoneally once a week. Tumor volume and body weight were monitored 3 times a week.

LA1-5S cells [4] = assay: Cell viability (crystal violet), ABTL0812 with topotecan; type: cell-based; conditions: ABTL0812 30 μM + topotecan 0.5, 1, 2 μM; 72 hours
Procedure: Methods: LA1-5S cells were incubated with increasing concentrations of topotecan (0.5 μM, 1 μM and 2 μM) and a fixed concentration of ABTL0812 (30 μM). Cells were treated for 72 hours in IMDM with 0.5% FBS. Cell viability was evaluated by crystal violet assay. Data is presented as mean±SEM of three independent experiments. Statistical analyses were performed according to the T-Test principle with GraphPad Prism® 5.0 software.

OPM2 cells = assay: Cell viability (MTT) and combination index, ABTL0812 with bortezomib; type: cell-based; conditions: ABTL0812 5 μM, Bortezomib 1 nM, alone or combined; 48h
Procedure: (§3) Methods: JJN-3 and OPM2 cells were seeded in 24-well plates and treated with ABTL0812 (5 μM), bortezomib (0.5 and 1 nM respectively) or a combination of both drugs and left in the incubator for 48h (0.5% FBS). Cell viability was studied by the MTT assay and combination index was determined to evaluate a possible synergism.
(§4) Cell viability was evaluated in all cases by MTT assay and the Combination Index (CI), to evaluate synergism, was calculated according to the method of Chou and Talalay (Chou 2006; Chou 2010), as follows: CI=(D)1/(Dx)1+(D)2/(Dx)2, where CI<1, =1, and >1 indicate synergism, additive effect, and antagonism, respectively. In the denominator, (Dx)1 is for D1 “alone” that inhibits a system x %, and (Dx)2 is for D2 “alone” that inhibits a system x %.

JJN-3 cells = assay: as above; type: cell-based; conditions: ABTL0812 5 μM, Bortezomib 0.5 nM, alone or combined; 48h
Procedure: as §3, §4

[5] = macrophages polarized to M1 (LPS+IFNγ 6 hours), ABTL0812 100 μM

CCCCC/C=C\C/C=C\CCCCCCC(O)C(=O)O (stereo not drawn) [ABTL0812, COOH—CHOH—(CH2)6—(CH═CH—CH2)2—(CH2)3—CH3]
Caspase 3 and 8 activation [1]: dose dependent increase | extracellular ATP [1]: dose dependent increase | extracellular Hmgb1 [1]: dose dependent increase | surface Calreticulin [1]: dose dependent increase | temozolomide cytotoxicity on addition of ABTL0812 (SK-N-BE(2) cells): increased temozolomide cytotoxicity | temozolomide cytotoxicity on addition of ABTL0812 (LA1-5S cells [2]): increased temozolomide cytotoxicity | expression of IL-1β ([3]; differentiated macrophages without polarizing, ABTL0812 alone): significantly induces the expression of IL-1β | IL-1β mRNA levels [3, 5]: significantly potentiates | TNFα mRNA levels [3, 5]: significantly potentiates | IL-10 mRNA levels ([3]; macrophages polarized to M2 (IL-4 and IL-13, 24 hours), ABTL0812 100 μM): significantly suppresses | PD1 expression (PD1; activated (IL-2, CD3 and CD28 antibodies) human primary CD4 and CD8 T lymphocytes): induces the inhibition of PD1 expression | PD1 expression (PD1; non-activated human primary CD4 and CD8 T lymphocytes): induces the inhibition of PD1 expression | protein levels of PDL1 in tumor (H157 cells): Increases protein levels of PDL1 in tumor in vivo | protein levels of PDL1 in tumor (MiaPaca2 cells): Increases protein levels of PDL1 in tumor in vivo | tumor volume (Ishikawa cells): significantly reduced tumor volume | topotecan cytotoxicity on addition of ABTL0812 (LA1-5S cells [4]): significantly increased topotecan cytotoxicity | cell death (OPM2 cells): around 20% | cell death (JJN-3 cells): around 10%

Source: patent US20230088704A1, “A PHARMACEUTICAL COMBINATION FOR THE TREATMENT OF A CANCER” (ABILITY PHARMACEUTICALS S.L., priority 2020, published 2023)
